Test results reported in US12595267B2, “Preparation method for amide compound and application thereof in field of medicine” (Shanghai Synergy Pharmaceutical Sciences Co., Ltd., priority 2019, dated 2026).
Where two headings read alike, the source gives them in different places.

Experiments:
WSU-DLCL2 cells = experiment: Calcein AM proliferation assay, WSU-DLCL2 cells; assay type: cell-based, human; conditions: Homo sapiens, read-out: WSU-DLCL2 proliferation IC50
Procedure: By observing under a microscope, it was confirmed that the cells are in good condition. The cells were transferred to a 15 mL centrifuge tube, which was centrifuged at 1000 rpm for 5 minutes.
Gradient dilutions of the compounds in DMSO were performed, and a compound plate with a final concentration of 500-fold was prepared. 1.2 μL of 500× compound was pipetted, transferred to 200 μL medium, and pipetted to mix well to obtain a 3× compound intermediate plate. 50 μL 3× compound is pipetted and added to the cell plate according to the set arrangement.
The cells of the above concentration were inoculated in 96-well plates, 100 μL/well (the number of cells in each well is 10,000). The cell plate was placed in a carbon dioxide incubator for 4 days. The cell plate was taken out. After mixed uniformly, a certain volume of cell suspension was drawn, and stained with Calcein AM. The number of cells in each well was counted with Acumen. According to the number of detected cells, 10,000 cells were re-inoculated in 96-well plates. As above, the compound was added. After placed in a carbon dioxide incubator for 3 days (day 7). The cell plate was taken out again. After mixed uniformly, a certain volume of cell suspension was drawn, stained with Calcein AM. The number of cells in each well was counted with Acumen. The cells were cultured for another 4 days (day 11), and the cell plate was taken out for the third time. After mixed uniformly, a certain volume of cell suspension was drawn, and stained with Calcein AM. The number of cells in each well was counted with Acumen. According to the number of detected cells, 10,000 cells were re-inoculated in 96-well plates. As above, the compound was added. […] After Calcein AM staining, the number of the cells was counted to obtain the final count result. The data of day 14 was processed to obtain the corresponding half-inhibitory concentration (IC50).
Using GraphPad Prism 5 software, a non-linear regression model was used to draw the S-type dose-survival rate curve and to calculate the IC50 value.

Pfeiffer cells = experiment: Calcein AM proliferation assay, Pfeiffer cells; assay type: cell-based, human; conditions: Homo sapiens, Pfeiffer, read-out: Pfeiffer proliferation IC50
Karpas 422 cells = experiment: Calcein AM proliferation assay, Karpas 422 cells; assay type: cell-based, human; conditions: Homo sapiens, read-out: Karpas422 proliferation IC50
[1] = Pharmacokinetics experiment in rats; assay type: in vivo; conditions: rat, plasma, male SD rats; for bioavailability: oral 20 mg/kg vs intravenous 4 mg/kg, read-out: Bioavailability (F %); for AUC: read-out: Area under the curve (AUC); for half-life: read-out: Half life (T1/2) (converted); for Cmax: read-out: Blood drug level (Cmax)
Procedure: Male SD rats weighing 200-300 g and 8 weeks old were used as experimental animals. […] The pharmacokinetic behavior of the compound of the present invention in rats was studied, and the pharmacokinetic characteristics thereof were evaluated.
A certain amount of the compound was weighed, dissolved in 0.10% tween for vortex and ultrasound, and then 0.5% sodium carboxymethyl cellulose (CMC-Na) solution was added to prepare a uniform solution.
The above-mentioned compounds were applied intravenously and orally to rats at a dose of 4 mg/kg and a dose of 20 mg/kg, respectively. At 0.083 h, 0.25 h, 0.5 h, 1.0 h, 2.0 h, 4.0 h, 6.0 h, 8.0 h, 12.0 h, and 24.0 h after application, 0.2 mL of blood was collected from the orbit, and placed in an anticoagulant tube, which was centrifuged at 6000 rpm for 10 minutes at 4° C. The plasma was separated and stored at −80° C.

wild-type EZH2 = wild-type EZH2 (Homo sapiens, UniProt Q15910); experiment: Radiometric assay of activity on wild-type PRC2 EZH2
Procedure: 10 microliters (μL) of the compound of the test example and wild-type EZH2 were added to each well. After being incubated at room temperature for 15 minutes, peptides and [3H]-labeled methyl donor S-adenosylmethionine (SAM) were added. After reacting at room temperature for 1 hour (h), cold SAM was added to terminate the reaction. 25 μl reaction solution was transferred to the scintillation plate. After incubating for 1 hour (h) at room temperature, the plate was washed three times with deionized water and 0.1% Tween 20. The value was read with a PerkinElmer liquid scintillation/luminescence counter, and the half inhibitory concentration (IC50) of the compound was calculated with the Prism 5 software (GraphPad Prism 5).

Mutant EZH2 (Y641F) = biological target: T1, Mutant EZH2 (Y641F) (Homo sapiens, UniProt Q15910, Y641F); experiment: AlphaLISA assay on mutant PRC2 complex, EZH2 Y641F; assay type: biochemical
T1 construct: purchased BPS 51004
Procedure: Detection Method: AlphaLISA
(§1) Finally, 15 μl detection solution mixture was added under low light, and incubated at room temperature for 60 minutes, and read the value.

Mutant EZH2 (Y641N) = biological target: T2, Mutant EZH2 (Y641N) (Homo sapiens, UniProt Q15910, Y641N); experiment: AlphaLISA assay on mutant PRC2 complex, EZH2 Y641N; assay type: biochemical
T2 construct: purchased BPS 51004
Procedure: Detection Method: AlphaLISA
as §1

Mutant EZH2 (A677G) = biological target: T3, Mutant EZH2 (A677G) (Homo sapiens, UniProt Q15910, A677G); experiment: AlphaLISA assay on mutant PRC2 complex, EZH2 A677G; assay type: biochemical
T3 construct: purchased BPS 51004
Procedure: Detection Method: AlphaLISA
as §1

[2] = WSUDLCL2, day 14 data, Calcein AM staining
[3] = KARPAS-422, day 14 data, Calcein AM staining
[4] = day 14 data, Calcein AM staining

Sequence of wild-type EZH2 (Q15910 whole entry): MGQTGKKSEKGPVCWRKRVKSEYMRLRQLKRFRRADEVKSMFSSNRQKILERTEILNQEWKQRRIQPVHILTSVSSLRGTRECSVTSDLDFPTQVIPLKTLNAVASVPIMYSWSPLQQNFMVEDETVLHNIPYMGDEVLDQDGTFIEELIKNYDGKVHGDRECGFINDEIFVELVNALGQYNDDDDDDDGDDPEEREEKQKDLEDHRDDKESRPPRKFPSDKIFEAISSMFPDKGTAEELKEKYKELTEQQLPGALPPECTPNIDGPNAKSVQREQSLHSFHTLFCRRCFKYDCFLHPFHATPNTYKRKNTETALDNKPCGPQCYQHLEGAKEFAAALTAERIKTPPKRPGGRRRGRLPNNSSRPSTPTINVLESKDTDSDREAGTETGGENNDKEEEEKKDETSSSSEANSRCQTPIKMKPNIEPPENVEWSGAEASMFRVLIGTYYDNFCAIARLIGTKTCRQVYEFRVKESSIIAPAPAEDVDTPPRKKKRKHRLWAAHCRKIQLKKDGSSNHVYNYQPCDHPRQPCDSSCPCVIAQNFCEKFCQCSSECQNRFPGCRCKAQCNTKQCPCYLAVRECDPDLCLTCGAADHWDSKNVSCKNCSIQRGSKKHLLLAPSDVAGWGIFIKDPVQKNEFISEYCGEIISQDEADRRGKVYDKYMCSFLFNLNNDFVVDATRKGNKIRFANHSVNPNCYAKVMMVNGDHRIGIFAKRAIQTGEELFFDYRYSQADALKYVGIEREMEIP
Sequence of wild-type EZH2 (O75530 whole entry partner): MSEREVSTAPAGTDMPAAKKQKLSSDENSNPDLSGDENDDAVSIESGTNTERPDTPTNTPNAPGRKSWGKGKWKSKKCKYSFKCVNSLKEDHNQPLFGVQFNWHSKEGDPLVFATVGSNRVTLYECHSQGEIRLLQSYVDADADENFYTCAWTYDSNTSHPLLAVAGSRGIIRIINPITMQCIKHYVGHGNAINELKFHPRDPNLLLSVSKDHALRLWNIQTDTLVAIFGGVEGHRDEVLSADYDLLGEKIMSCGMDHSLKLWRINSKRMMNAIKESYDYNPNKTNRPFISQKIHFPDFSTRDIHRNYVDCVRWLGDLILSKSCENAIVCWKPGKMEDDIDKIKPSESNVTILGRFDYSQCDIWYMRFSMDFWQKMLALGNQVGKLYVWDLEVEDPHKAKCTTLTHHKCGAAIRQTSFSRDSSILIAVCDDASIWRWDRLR
Sequence of wild-type EZH2 (Q15022 whole entry partner): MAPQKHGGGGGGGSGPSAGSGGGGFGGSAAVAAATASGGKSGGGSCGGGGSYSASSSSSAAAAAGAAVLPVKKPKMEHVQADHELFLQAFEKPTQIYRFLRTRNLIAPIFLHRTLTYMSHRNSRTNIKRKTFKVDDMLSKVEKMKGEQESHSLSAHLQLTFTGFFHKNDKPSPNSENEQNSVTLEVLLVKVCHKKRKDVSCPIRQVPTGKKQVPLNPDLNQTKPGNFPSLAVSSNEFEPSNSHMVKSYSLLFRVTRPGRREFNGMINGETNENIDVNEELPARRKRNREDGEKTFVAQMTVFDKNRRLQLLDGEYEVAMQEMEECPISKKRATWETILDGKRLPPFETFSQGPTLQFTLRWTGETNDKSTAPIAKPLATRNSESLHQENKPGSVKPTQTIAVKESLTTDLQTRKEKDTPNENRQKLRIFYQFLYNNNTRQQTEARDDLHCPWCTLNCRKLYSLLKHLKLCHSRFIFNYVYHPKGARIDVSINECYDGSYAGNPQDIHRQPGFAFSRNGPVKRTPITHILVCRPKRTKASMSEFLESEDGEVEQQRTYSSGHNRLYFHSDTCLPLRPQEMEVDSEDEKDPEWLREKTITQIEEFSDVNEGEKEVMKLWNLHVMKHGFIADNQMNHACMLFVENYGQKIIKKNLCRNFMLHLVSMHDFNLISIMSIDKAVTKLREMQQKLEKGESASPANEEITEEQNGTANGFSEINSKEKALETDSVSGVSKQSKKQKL
Sequence of wild-type EZH2 (Q09028 whole entry partner): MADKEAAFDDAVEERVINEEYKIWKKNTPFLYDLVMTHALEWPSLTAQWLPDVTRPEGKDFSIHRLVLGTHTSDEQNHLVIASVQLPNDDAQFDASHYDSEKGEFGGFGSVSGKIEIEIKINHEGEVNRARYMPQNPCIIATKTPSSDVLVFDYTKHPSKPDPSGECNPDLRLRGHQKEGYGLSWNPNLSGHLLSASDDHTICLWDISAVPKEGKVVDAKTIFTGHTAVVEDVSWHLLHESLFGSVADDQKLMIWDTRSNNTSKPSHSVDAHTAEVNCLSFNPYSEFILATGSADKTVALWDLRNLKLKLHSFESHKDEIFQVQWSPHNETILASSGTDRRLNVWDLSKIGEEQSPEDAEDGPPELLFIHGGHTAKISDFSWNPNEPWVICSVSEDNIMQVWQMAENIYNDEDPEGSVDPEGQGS
T1 sequence (Q15910 whole entry Y641F): as the sequence (Q15910 whole entry) above, with Y641F counted along it
T1 sequence (O75530 whole entry partner): as the sequence (O75530 whole entry partner) above
T1 sequence (Q15022 whole entry partner): as the sequence (Q15022 whole entry partner) above
T1 sequence (Q09028 whole entry partner): as the sequence (Q09028 whole entry partner) above
T1 sequence (Q6ZN18 whole entry partner): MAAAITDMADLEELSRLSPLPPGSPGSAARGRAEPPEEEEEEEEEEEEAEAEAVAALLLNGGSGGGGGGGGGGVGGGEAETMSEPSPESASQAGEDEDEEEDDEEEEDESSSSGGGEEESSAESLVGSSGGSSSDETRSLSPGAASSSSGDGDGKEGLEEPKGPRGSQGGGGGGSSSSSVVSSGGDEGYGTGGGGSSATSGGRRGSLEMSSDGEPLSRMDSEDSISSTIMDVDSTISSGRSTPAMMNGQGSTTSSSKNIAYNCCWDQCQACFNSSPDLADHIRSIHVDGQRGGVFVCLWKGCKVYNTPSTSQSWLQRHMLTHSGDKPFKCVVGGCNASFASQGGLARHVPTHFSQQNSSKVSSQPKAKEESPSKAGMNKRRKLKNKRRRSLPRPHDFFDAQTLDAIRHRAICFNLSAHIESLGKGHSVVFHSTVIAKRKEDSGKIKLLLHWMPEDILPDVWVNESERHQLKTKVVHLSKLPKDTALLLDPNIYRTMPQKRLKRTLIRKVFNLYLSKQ
T2 sequence (Q15910 whole entry Y641N): as the sequence (Q15910 whole entry) above, with Y641N counted along it
T2 sequence (O75530 whole entry partner): as the sequence (O75530 whole entry partner) above
T2 sequence (Q15022 whole entry partner): as the sequence (Q15022 whole entry partner) above
T2 sequence (Q09028 whole entry partner): as the sequence (Q09028 whole entry partner) above
T2 sequence (Q6ZN18 whole entry partner): as the sequence (Q6ZN18 whole entry partner) above
T3 sequence (Q15910 whole entry A677G): as the sequence (Q15910 whole entry) above, with A677G counted along it
T3 sequence (O75530 whole entry partner): as the sequence (O75530 whole entry partner) above
T3 sequence (Q15022 whole entry partner): as the sequence (Q15022 whole entry partner) above
T3 sequence (Q09028 whole entry partner): as the sequence (Q09028 whole entry partner) above
T3 sequence (Q6ZN18 whole entry partner): as the sequence (Q6ZN18 whole entry partner) above

| SMILES | IC50 (Karpas 422 cells; [3]) [nM] | IC50 (wild-type EZH2) [nM] | IC50 (WSU-DLCL2 cells; [2]) [nM] | IC50 (Pfeiffer cells; [4]) [nM] | also measured |
| --- | --- | --- | --- | --- | --- |
| CCN(c1cc(-c2ccc(C3(C#N)CCOCC3)cc2)cc(C(=O)NCc2c(C)cc(C)[nH]c2=O)c1C)C1CCOCC1 [Compound 1, 4′-(4-cyanotetrahydro-2H-pyran-4-yl)-N-((4,6-dimethyl-2-carbonyl-1,2-dihydropyridin-3-yl)methyl)-5-(ethyl(tetrahydro-2H-pyran-4-yl)amino)-4-methyl-[1,1′-biphenyl]-3-formamide] | – | – | – | – | IC50 (WSU-DLCL2 cells; WSUDLCL2, […]): 2.87 nM; IC50 (Pfeiffer cells; […]): 1.34 nM; IC50 (Karpas 422 cells; KARPAS-422, […]): 2.15 nM |
| CCN(c1cc(-c2ccc(C3(C(=O)O)CCOCC3)cc2)cc(C(=O)NCc2c(C)cc(C)[nH]c2=O)c1C)C1CCOCC1 [Compound 2, 4-(3′-(((4,6-dimethyl-2-carbonyl-1,2-dihydropyridin-3-yl)methyl)carbamoyl)-5′-(ethyl(tetrahydro-2H-pyran-4-yl)amino)-4′-methyl-[1,1′-biphenyl]-4-yl)tetrahydro-2H-pyran-4-carboxylic Acid] | 1.08 | – | 1.58 | – | – |
| CCN(c1cc(-c2ccc(C3(CO)CCOCC3)cc2)cc(C(=O)NCc2c(C)cc(C)[nH]c2=O)c1C)C1CCOCC1 [Compound 3, N-((4,6-dimethyl-2-carbonyl-1,2-dihydropyridin-3-yl)methyl)-5-(ethyl(tetrahydro-2H-pyran-4-yl)amino)-4′-(4-(hydroxymethyl)tetrahydro-2H-pyran-4-yl)-4-methyl-[1,1′-biphenyl]-3-carboxamide] | 2.5 | – | 2.68 | 1.67 | – |
| CCN(c1cc(-c2ccc(C3(COC)CCOCC3)cc2)cc(C(=O)NCc2c(C)cc(C)[nH]c2=O)c1C)C1CCOCC1 [Compound 5, N-((4,6-dimethyl-2-carbonyl-1,2-dihydropyridin-3-yl)methyl)-5-(ethyl(tetrahydro-2H-pyran-4-yl)amino)-4′-(4-(methoxymethyl)tetrahydro-2H-pyran-4-yl)-4-methyl-[1,1′-biphenyl]-3-carboxamide] | 3.23 | – | 5.85 | 2.84 | – |
| CCN(c1cc(-c2ccc3c(c2)CCC3N2CCOCC2)cc(C(=O)NCc2c(OC)cc(C)[nH]c2=O)c1C)C1CCOCC1 (centres unmarked) [Compound 6, 3-(ethyl(tetrahydro-2H-pyran-4-yl)amino)-N-((4-methoxy-6-methyl-2-oxo-1,2-dihydropyridin-3-yl)methyl)-2-methyl-5-(1-morpholino-2,3-dihydro-1H-inden-5-yl)benzamide] | 4.15 | 0.52 | 5.13 | 3.2 | bioavailability [1]: 33.3%; AUC ([1]; intravenous dosing 4 mg/kg): 966 ng·h/mL; half-life ([1]; intravenous dosing 4 mg/kg): 1.12 h; AUC ([1]; oral dosing 20 mg/kg): 1610 ng·h/mL; Cmax ([1]; oral dosing 20 mg/kg): 456 ng/mL |
| CCN(c1cc(-c2ccc3c(c2)CCC3N2CCOCC2)cc(C(=O)NCc2c(C)cc(C)[nH]c2=O)c1C)C1CC(C)OC(C)C1 (centres unmarked) [Compound 13, N-((4,6-dimethyl-2-oxo-1,2-dihydropyridin-3-yl)methyl)-3-((2,6-dimethyltetrahydro-2H-pyran-4-yl)(ethyl)amino)-2-methyl-5-(1-morpholino-2,3-di hydro-1H-inden-5-yl)benzamide] | – | 0.95 | – | – | IC50 (Mutant EZH2 (Y641F)): 0.81 nM; IC50 (WSU-DLCL2 cells; WSUDLCL2, […]): 1.28 nM; IC50 (Pfeiffer cells; […]): 0.87 nM; IC50 (Karpas 422 cells; KARPAS-422, […]): 0.95 nM; bioavailability [1]: 34.5%; AUC ([1]; intravenous dosing 4 mg/kg): 977 ng·h/mL; half-life ([1]; intravenous dosing 4 mg/kg): 1.34 h; AUC ([1]; oral dosing 20 mg/kg): 1690 ng·h/mL; Cmax ([1]; oral dosing 20 mg/kg): 403 ng/mL |
| CCN(c1cc(-c2ccc3c(c2)C(C)(C)CC3N2CCOCC2)cc(C(=O)NCc2c(C)cc(C)[nH]c2=O)c1C)C1CCOCC1 (centres unmarked) [Compound 27] | – | – | 1.71 | – | – |

Second part, led by results:

| IC50 (Karpas 422 cells; [3]) [nM] | IC50 (wild-type EZH2) [nM] | SMILES | IC50 (WSU-DLCL2 cells; [2]) [nM] | IC50 (Pfeiffer cells; [4]) [nM] | also measured |
| --- | --- | --- | --- | --- | --- |
| 4.15 | 0.9 | CCN(c1cc(-c2ccc(C3(C#N)CCOCC3)cc2)c(Cl)c(C(=O)NCc2c(C)cc(C)[nH]c2=O)c1C)C1CCOCC1 [Compound 9, 2-chloro-4′-(4-cyanotetrahydro-2H-pyran-4-yl)-N-((4,6-dimethyl-2-oxo-1,2-dihydropyridin-3-yl)methyl)-5-(ethyl(tetrahydro-2H-pyran-4-yl)amino)-4-methyl-[1,1′-biphenyl]-3-formamide] | 4.68 | 3.47 | IC50 (Mutant EZH2 (Y641F)): 0.48 nM |
| 0.58 | 0.63 | CCN(c1cc(-c2ccc3c(c2)CCC3N2CCOCC2)c(Cl)c(C(=O)NCc2c(C)cc(C)[nH]c2=O)c1C)C1CCOCC1 (centres unmarked) [Compound 10, 2-chloro-N-((4,6-dimethyl-2-oxo-1,2-dihydropyridin-3-yl)methyl)-5-(ethyl(tetrahydro-2H-pyran-4-yl)amino)-6-methyl-3-(1-morpholino-2,3-dihydro-1H-inden-5-yl)benzamide] | 1.17 | 0.38 | IC50 (Mutant EZH2 (Y641F)): 0.58 nM; IC50 (Mutant EZH2 (Y641N)): 0.3 nM; bioavailability [1]: 30.6%; AUC ([1]; intravenous dosing 4 mg/kg): 937 ng·h/mL; half-life ([1]; intravenous dosing 4 mg/kg): 1.64 h; AUC ([1]; oral dosing 20 mg/kg): 1440 ng·h/mL; Cmax ([1]; oral dosing 20 mg/kg): 405 ng/mL |
| 1.87 | 0.6 | CCN(c1cc(-c2ccc3c(c2)CCC3N2CCOCC2)c(F)c(C(=O)NCc2c(C)cc(C)[nH]c2=O)c1C)C1CCOCC1 (centres unmarked) [Compound 11, N-((4,6-dimethyl-2-oxo-1,2-dihydropyridin-3-yl)methyl)-3-(ethyl (tetrahydro-2H-pyran-4-yl)amino)-6-fluoro-2-methyl-5-(1-morpholino-2,3-dihydro-1H-inden-5-yl)benzamide] | 2.92 | 1.08 | IC50 (Mutant EZH2 (Y641F)): 0.54 nM; bioavailability [1]: 26.6%; AUC ([1]; intravenous dosing 4 mg/kg): 954 ng·h/mL; half-life ([1]; intravenous dosing 4 mg/kg): 1.34 h; AUC ([1]; oral dosing 20 mg/kg): 1270 ng·h/mL; Cmax ([1]; oral dosing 20 mg/kg): 489 ng/mL |
| 3.76 | – | CCN(c1cc(-c2ccc3c(c2)CCC3N2CCOCC2)cc(C(=O)NCc2c(C)cc(C)[nH]c2=O)c1C)C1CCOC(C)C1 (centres unmarked) [Compound 14, N-((4,6-dimethyl-2-oxo-1,2-dihydropyridin-3-yl)methyl)-3-((2-methyltetrahydro-2H-pyran-4-yl)(ethyl)amino)-2-methyl-5-(1-morpholino-2,3-dihydro-1H-inden-5-yl)benzamide] | 4.15 | 2.89 | – |
| 2.6 | – | CCN(c1cc(N2Cc3ccc(N(C)C)cc3C2)cc(C(=O)NCc2c(C)cc(C)[nH]c2=O)c1C)C1CCOCC1 [Compound 17, N-((4,6-dimethyl-2-oxo-1,2-dihydropyridin-3-yl)methyl)-5-(5-(dimethylamino)isoindolin-2-yl)-3-(ethyl(tetrahydro-2H-pyran-4-yl)amino)-2-methylbenzamide] | 3.71 | 1.27 | – |
| 3.21 | 0.61 | C=CC(=O)Nc1ccc2c(c1)CN(c1cc(C(=O)NCc3c(C)cc(C)[nH]c3=O)c(C)c(N(CC)C3CCOCC3)c1)C2 [Compound 19, 5-(5-acrylamidoisoindolin-2-yl)-N-((4,6-dimethyl-2-oxo-1,2-dihydropyridin-3-yl)methyl)-3-(ethyl(tetrahydro-2H-pyran-4-yl)amino)-2-methylbenzamide] | 7.75 | 2.34 | IC50 (Mutant EZH2 (Y641N)): 0.08 nM |
| 3.62 | – | CCN(c1cc(N2Cc3ccc(CN4CCOCC4)cc3C2)cc(C(=O)NCc2c(C)cc(C)[nH]c2=O)c1C)C1CCOCC1 [Compound 20, N-((4,6-dimethyl-2-oxo-1,2-dihydropyridin-3-yl)methyl)-3-(ethyl (tetrahydro-2H-pyran-4-yl)amino)-2-methyl-5-((5-morpholinomethyl)isoindolin-2-yl)benzamide] | 7.84 | 2.85 | – |
| 3.67 | 0.71 | CCN(c1ccc2c(c1)CN(c1cc(C(=O)NCc3c(C)cc(C)[nH]c3=O)c(C)c(N(CC)C3CCOCC3)c1)C2)C1CCOCC1 [Compound 22, N-((4,6-dimethyl-2-oxo-1,2-dihydropyridin-3-yl)methyl)-3-(ethyl (tetrahydro-2H-pyran-4-yl)amino)-5-(5-(ethyl(tetrahydro-2H-pyran-4-yl)amino)isoindolin-2-yl)-2-methylbenzamide] | 6.38 | 1.87 | – |
| 4.09 | 0.89 | CCN(c1cc(N2Cc3ccc(NC4CCOCC4)cc3C2)cc(C(=O)NCc2c(C)cc(C)[nH]c2=O)c1C)C1CCOCC1 [Compound 23] | 6.48 | 4.36 | IC50 (Mutant EZH2 (A677G)): 0.66 nM; IC50 (Mutant EZH2 (Y641N)): 0.5 nM |
| 4.47 | 0.87 | CCN(c1cc(-c2cc3c(cc2F)C(N2CCOCC2)CC3)cc(C(=O)NCc2c(C)cc(C)[nH]c2=O)c1C)C1CCOCC1 (centres unmarked) [Compound 24] | 5.28 | 2.96 | IC50 (Mutant EZH2 (A677G)): 0.61 nM |
| 6.47 | – | CCN(c1cc(-c2cc(F)c3c(c2)CCC3N2CCOCC2)cc(C(=O)NCc2c(C)cc(C)[nH]c2=O)c1C)C1CCOCC1 (centres unmarked) [Compound 26] | 9.42 | 5.86 | – |
